Molecules are shown by their SMILES.

The target of the assay is T1, Cannabinoid-1 receptor (CB1R) (Rattus norvegicus, UniProt P20272).
T1 construct: The tissue obtained from the brain of SD rats was homogenized; from tissue; host or cells: brain of SD rats (membrane pellet of the homogenate)
T1 sequence (P20272 whole entry): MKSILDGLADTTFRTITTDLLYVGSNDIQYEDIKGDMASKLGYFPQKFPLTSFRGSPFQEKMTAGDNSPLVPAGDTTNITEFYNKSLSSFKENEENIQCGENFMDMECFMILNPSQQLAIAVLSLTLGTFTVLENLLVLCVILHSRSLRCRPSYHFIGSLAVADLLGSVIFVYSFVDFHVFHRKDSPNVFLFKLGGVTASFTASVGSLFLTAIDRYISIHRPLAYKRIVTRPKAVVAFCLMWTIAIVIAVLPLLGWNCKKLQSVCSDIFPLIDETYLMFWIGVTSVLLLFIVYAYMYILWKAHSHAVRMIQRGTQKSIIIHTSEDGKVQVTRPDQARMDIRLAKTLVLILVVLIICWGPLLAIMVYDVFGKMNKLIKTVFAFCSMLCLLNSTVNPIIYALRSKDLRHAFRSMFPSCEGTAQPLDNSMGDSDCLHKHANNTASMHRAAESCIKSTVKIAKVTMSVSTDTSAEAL
Nature of the assay: Cannabinoid-1 receptor (CB1R) binding affinity assay ([3H]CP-55940, rat CB-1 receptor binding protocol). The conditions noted are these: brain tissue of SD rats, [3H]CP-55940, 30° C. 60 min; read-out: IC50.
The term IC50 denotes the concentration that inhibits the measured activity by half. For the molecule `CCc1c(-c2nnc(C3(c4ccccc4F)CC3)o2)nn(-c2ccc(Cl)cc2Cl)c1-c1ccc(Cl)cc1` [Example 282, 2-(5-(4-chlorophenyl)-1-(2,4-dichlorophenyl)-4-ethyl-1H-pyrazol-3-yl)-5-(1-(2-fluorophenyl)cyclopropyl)-1,3,4-oxadiazole], the IC50 was determined as 4.08 nM.
On to `CCc1c(-c2nnc(C3(C)CC3)o2)nn(-c2ccc(Cl)cc2Cl)c1-c1ccc(Cl)cc1` [Example 283, 2-(5-(4-chlorophenyl)-1-(2,4-dichlorophenyl)-4-ethyl-1H-pyrazol-3-yl)-5-(1-methylcyclopropyl)-1,3,4-oxadiazole], for which the IC50 is 11 nM.
Turning to `CC(=O)C1(c2nnc(-c3nn(-c4ccc(Cl)cc4Cl)c(-c4ccc(Cl)cc4)c3C)o2)CC1` [Example 286, 1-(1-(5-(5-(4-chlorophenyl)-1-(2,4-dichlorophenyl)-4-methyl-1H-pyrazol-3-yl)-1,3,4-oxadiazol-2-yl)cyclopropyl)ethanone], the IC50 was 9.36 nM.
The figure for `Cc1c(-c2nnc(C3(C(C)(C)O)CC3)o2)nn(-c2ccc(Cl)cc2Cl)c1-c1ccc(Cl)cc1` [Example 287, 2-(1-(5-(5-(4-chlorophenyl)-1-(2,4-dichlorophenyl)-4-methyl-1H-pyrazol-3-yl)-1,3,4-oxadiazol-2-yl)cyclopropyl)propan-2-ol] is 34.9 nM.
With `Cc1c(-c2nnc(C3(C(C)O)CC3)o2)nn(-c2ccc(Cl)cc2Cl)c1-c1ccc(Cl)cc1` (centres unmarked) [Example 288, 1-(1-(5-(5-(4-chlorophenyl)-1-(2,4-dichlorophenyl)-4-methyl-1H-pyrazol-3-yl)-1,3,4-oxadiazol-2-yl)cyclopropyl)ethanol], the IC50 is 60.2 nM.
As to `CCN(C)Cc1c(-c2nnc(C(C)(C)C)o2)nn(-c2ccc(Cl)cc2Cl)c1-c1ccc(Cl)cc1` [Example 290, N-((3-(5-tert-butyl-1,3,4-oxadiazol-2-yl)-5-(4-chlorophenyl)-1-(2,4-dichlorophenyl)-1H-pyrazol-4-yl)methyl)-N-methylethanamine], the IC50 is 227 nM.
Turning to `CC(C)(C)c1nnc(-c2nn(-c3ccc(Cl)cc3Cl)c(-c3ccc(Cl)cc3)c2CN2CCCCC2)o1` [Example 291, 2-tert-butyl-5-(5-(4-chlorophenyl)-1-(2,4-dichlorophenyl)-4-(piperidin-1-ylmethyl)-1H-pyrazol-3-yl)-1,3,4-oxadiazole], the IC50 amounted to 45.7 nM.
The figure for `CC(C)(C)c1nnc(-c2nn(-c3ccc(Cl)cc3Cl)c(-c3ccc(Cl)cc3)c2CN2CCOCC2)o1` [Example 293, 4-((3-(5-tert-butyl-1,3,4-oxadiazol-2-yl)-5-(4-chlorophenyl)-1-(2,4-dichlorophenyl)-1H-pyrazol-4-yl)methyl)morpholine] is 135 nM; for `CC(C)NCc1c(-c2nnc(C(C)(C)C)o2)nn(-c2ccc(Cl)cc2Cl)c1-c1ccc(Cl)cc1` [Example 295, N-((3-(5-tert-butyl-1,3,4-oxadiazol-2-yl)-5-(4-chlorophenyl)-1-(2,4-dichlorophenyl)-1H-pyrazol-4-yl)methyl)propan-2-amine] it is 41.5 nM.
Regarding `CC(C)(C)c1nnc(-c2nn(-c3ccc(Cl)cc3Cl)c(-c3ccc(Cl)cc3)c2Cn2cncn2)o1` [Example 296, 2-(4-((1H-1,2,4-triazol-1-yl)methyl)-5-(4-chlorophenyl)-1-(2,4-dichlorophenyl)-1H-pyrazol-3-yl)-5-tert-butyl-1,3,4-oxadiazole], the IC50 was 2.36 nM.
With `CC(C)(C)c1nnc(-c2nn(-c3ccc(Cl)cc3Cl)c(-c3ccc(Cl)cc3)c2Cn2ccnc2)o1` [Example 297, 2-(4-((1H-imidazol-1-yl)methyl)-5-(4-chlorophenyl)-1-(2,4-dichlorophenyl)-1H-pyrazol-3-yl)-5-tert-butyl-1,3,4-oxadiazole] the figure was 18.7 nM.
With `CC(C)(C)c1nnc(-c2nn(-c3ccc(Cl)cc3Cl)c(-c3ccc(Cl)cc3)c2Cn2cccn2)o1` [Example 298, 2-(4-((1H-pyrazol-1-yl)methyl)-5-(4-chlorophenyl)-1-(2,4-dichlorophenyl)-1H-pyrazol-3-yl)-5-tert-butyl-1,3,4-oxadiazole] the figure was 20.5 nM; with `CC(C)(C)c1nnc(-c2nn(-c3ccc(Cl)cc3Cl)c(-c3ccc(Cl)cc3)c2Cn2cccc2)o1` [Example 299, 2-(4-((1H-pyrrol-1-yl)methyl)-5-(4-chlorophenyl)-1-(2,4-dichlorophenyl)-1H-pyrazol-3-yl)-5-tert-butyl-1,3,4-oxadiazole], 38.4 nM; with `CC(C)(C)c1nnc(-c2nn(-c3ccc(Cl)cc3Cl)c(-c3ccc(Cl)cc3)c2Cn2cnnn2)o1` [Example 300, 2-(4-((1H-tetrazol-1-yl)methyl)-5-(4-chlorophenyl)-1-(2,4-dichlorophenyl)-1H-pyrazol-3-yl)-5-tert-butyl-1,3,4-oxadiazole], 3.37 nM.
As to `CC(C)(C)c1nnc(-c2nn(-c3ccc(Cl)cc3Cl)c(-c3ccc(Cl)cc3)c2Cn2cnnn2)o1` [Example 301, 2-(4-((1H-tetrazol-1-yl)methyl)-5-(4-chlorophenyl)-1-(2,4-dichlorophenyl)-1H-pyrazol-3-yl)-5-tert-butyl-1,3,4-oxadiazole], the IC50 came to 7.64 nM.
The figure for `CC(C)(C)c1nnc(-c2nn(-c3ccc(Cl)cc3Cl)c(-c3ccc(Br)cc3)c2Cn2ncnn2)o1` [Example 302, 2-(4-((2H-tetrazol-2-yl)methyl)-5-(4-bromophenyl)-1-(2,4-dichlorophenyl)-1H-pyrazol-3-yl)-5-tert-butyl-1,3,4-oxadiazole] is 6.44 nM; for `CC(C)(C)c1nnc(-c2nn(-c3ccc(Cl)cc3Cl)c(-c3ccc(Br)cc3)c2Cn2cnnn2)o1` [Example 303, 2-(4-((1H-tetrazol-1-yl)methyl)-5-(4-bromophenyl)-1-(2,4-dichlorophenyl)-1H-pyrazol-3-yl)-5-tert-butyl-1,3,4-oxadiazole] it is 12 nM.
Take `CC(C)(C)c1nnc(-c2nn(-c3ccc(Cl)cc3Cl)c(-c3ccc(Cl)cc3)c2Cn2ccnn2)o1` [Example 304, 2-(4-((1H-1,2,3-triazol-1-yl)methyl)-5-(4-chlorophenyl)-1-(2,4-dichlorophenyl)-1H-pyrazol-3-yl)-5-tert-butyl-1,3,4-oxadiazole]: the IC50 came out at 12.8 nM.
The figure for `CC(C)(C)c1nnc(-c2nn(-c3ccc(Cl)cc3Cl)c(-c3ccc(Cl)cc3)c2CN2C(=O)CCC2=O)o1` [Example 305, 1-((3-(5-tert-butyl-1,3,4-oxadiazol-2-yl)-5-(4-chlorophenyl)-1-(2,4-dichlorophenyl)-1H-pyrazol-4-yl)methyl)pyrrolidine-2,5-dione] is 287 nM.
In the case of `CC(C)(C)c1nnc(-c2nn(-c3ccc(Cl)cc3Cl)c(-c3ccc(Cl)cc3)c2CN2CCCC2=O)o1` [Example 306, 1-((3-(5-tert-butyl-1,3,4-oxadiazol-2-yl)-5-(4-chlorophenyl)-1-(2,4-dichlorophenyl)-1H-pyrazol-4-yl)methyl)pyrrolidin-2-one], the IC50 stood at 93.9 nM.
For the molecule `CC(C)(C)c1nnc(-c2nn(-c3ccc(Cl)cc3Cl)c(-c3ccc(Cl)cc3)c2CN2CCOC2=O)o1` [Example 307, 3-((3-(5-tert-butyl-1,3,4-oxadiazol-2-yl)-5-(4-chlorophenyl)-1-(2,4-dichlorophenyl)-1H-pyrazol-4-yl)methyl)oxazolidin-2-one], the IC50 came to 125 nM.
As to `CC(=O)SCc1c(-c2nnc(C(C)(C)C)o2)nn(-c2ccc(Cl)cc2Cl)c1-c1ccc(Cl)cc1` [Example 308, S-(3-(5-tert-butyl-1,3,4-oxadiazol-2-yl)-5-(4-chlorophenyl)-1-(2,4-dichlorophenyl)-1H-pyrazol-4-yl)methyl ethanethioate], the IC50 turned out to be 20.7 nM.
On to `CC(C)(C)c1nnc(-c2nn(-c3ccc(Cl)cc3Cl)c(-c3ccc(Cl)cc3)c2CC#N)o1` [Example 310, 2-(3-(5-tert-butyl-1,3,4-oxadiazol-2-yl)-5-(4-chlorophenyl)-1-(2,4-dichlorophenyl)-1H-pyrazol-4-yl)acetonitrile], for which the IC50 stood at 6.12 nM.
With `CSCc1c(-c2nnc(C(C)(C)C)o2)nn(-c2ccc(Cl)cc2Cl)c1-c1ccc(SC)cc1` [Example 311, 2-tert-butyl-5-(1-(2,4-dichlorophenyl)-5-(4-(methylthio)phenyl)-4-(methylthiomethyl)-1H-pyrazol-3-yl)-1,3,4-oxadiazole] the figure was 25.8 nM.
As to `Clc1ccc(-c2c(Cn3cncn3)c(-c3nnc(C4(c5ccc(Cl)cc5)CC4)o3)nn2-c2ccc(Cl)cc2Cl)cc1` [Example 313, 2-(4-((1H-1,2,4-triazol-1-yl)methyl)-5-(4-chlorophenyl)-1-(2,4-dichlorophenyl)-1H-pyrazol-3-yl)-5-(1-(4-chlorophenyl)cyclopropyl)-1,3,4-oxadiazole], the IC50 came out at 2.21 nM.
With `Clc1ccc(-c2c(Cn3cncn3)c(-c3nnc(C4CCC4)o3)nn2-c2ccc(Cl)cc2Cl)cc1` [Example 315, 2-(4-((1H-1,2,4-triazol-1-yl)methyl)-5-(4-chlorophenyl)-1-(2,4-dichlorophenyl)-1H-pyrazol-3-yl)-5-cyclobutyl-1,3,4-oxadiazole] the figure was 3.42 nM; with `Clc1ccc(-c2c(Cn3cncn3)c(-c3nnc(C4CCCCC4)o3)nn2-c2ccc(Cl)cc2Cl)cc1` [Example 316, 2-(4-((1H-1,2,4-triazol-1-yl)methyl)-5-(4-chlorophenyl)-1-(2,4-dichlorophenyl)-1H-pyrazol-3-yl)-5-cyclohexyl-1,3,4-oxadiazole], 3.42 nM; with `COc1ccc(C2(c3nnc(-c4nn(-c5ccc(Cl)cc5Cl)c(-c5ccc(Cl)cc5)c4Cn4cncn4)o3)CC2)cc1` [Example 319, 2-(4-((1H-1,2,4-triazol-1-yl)methyl)-5-(4-chlorophenyl)-1-(2,4-dichlorophenyl)-1H-pyrazol-3-yl)-5-(1-(4-methoxyphenyl)cyclopropyl)-1,3,4-oxadiazole], 2.89 nM.
As for `FC(F)(F)C1(c2nnc(-c3nn(-c4ccc(Cl)cc4Cl)c(-c4ccc(Cl)cc4)c3Cn3cncn3)o2)CCC1` [Example 321, 2-(4-((1H-1,2,4-triazol-1-yl)methyl)-5-(4-chlorophenyl)-1-(2,4-dichlorophenyl)-1H-pyrazol-3-yl)-5-(1-(trifluoromethyl)cyclobutyl)-1,3,4-oxadiazole], the IC50 stood at 1.73 nM.

These data come from US7875647B2, “Heteroaryl-pyrazole derivatives as cannabinoid CB1 receptor antagonists” (Green Cross Corporation, priority 2006, dated 2011).
